The source of these data is patent US10246487B2, “Azaindoline compounds as granzyme B inhibitors” (viDA Therapeutics Inc., priority 2014, dated 2019).

The target of assay [1] is T1, GzmB (Homo sapiens, UniProt P10144). The experiment in a line: Inhibition of cell detachment by GzmB assay (HDFa fibroblasts, MTS). It counts as cell-based. The following applies: 50 uM inhibitor, 100 nM GzmB, HDFa primary human fibroblasts, 7 hours; read-out: Percent Inhibition of cell detachment at 50uM. On the procedure: HDFa primary human fibroblasts were plated at 10 k/well in 200 ul, approximately 20 hrs before treatment. The next day, controls and 100 nM GzmB (recombinant, human) plus or minus inhibitor treatments were prepared in serum-free media. GzmB and inhibitor were incubated for 20 minutes at RT before adding to cells. Before addition, media and serum was removed from the cells and the cells were washed with PBS (1×), using pipettes to prevent disturbing the cells. Treatment preparations (100 ul) were added to the wells and incubated for 7 hours in a tissue culture incubator. After 7 hours, media and treatments were removed and the cells were washed with PBS (1×) to removed detached cells, using pipettes only. Phase pictures were taken then the PBS was removed and replaced with 100 uL of serum-free media and 20 uL of MTS and the cells were allowed to incubate for 3 hours in a cell culture incubator. After 3 hours the absorbance was read at 490 nm and a percent inhibition value for the treatments with inhibitors was determined from the control wells.

Assay [2] addresses T1, GzmB. The experiment in a line: Inhibition of fibronectin cleavage by GzmB. It counts as biochemical. Conditions: 20 nM granzyme B; for inhibition at 0.62 µM: 0.62 uM inhibitor, read-out: Percent Inhibition at Inhibitor Concentration 0.62 uM; for inhibition at 5.56 µM: 5.56 uM inhibitor, read-out: Percent Inhibition at Inhibitor Concentration 5.56 uM; for inhibition at 50 µM: 50 uM inhibitor, read-out: Percent Inhibition at Inhibitor Concentration 50 uM. The procedure: Black, 96 well high-binding assay plates (Griener Bio-one) were treated overnight at 4° C. with 40 uL of 8 ug/mL Hilyte Fluor 488 labeled Fibronectin (Cytoskeleton, Inc). After fibronectin coating, plates were washed 3 times in buffer (20 mM Tris-HCl, pH 7.4, 20 mM NaCl) then once with granzyme B assay buffer (50 mM HEPES, pH 7.5, 0.1% CHAPS). After washing, 50 μL of granzyme B assay buffer was added to each fibronectin-coated well. In a separate non-binding 96 well assay plate 5 μL of 20× inhibitor serial dilution stocks were added to 45 μL of 2.22× GzmB mix to establish inhibition (enzyme/inhibitor mixes were all prepared in granzyme B assay buffer and were incubated first at room temperature for 20 minutes, then at 30° C. for another 10 minutes). After incubation, 50 μL of this 2× enzyme/inhibitor mix was added to the corresponding coated well to initiate fibronectin cleavage (20 nM final granzyme B concentration, 8-point inhibitor dilution series starting at 50 uM). The assay was conducted at 30° C. in the TECAN plate reader (TECAN INFINITE® M1000 Pro), which was programmed to monitor the kinetic fluorescence polarization signal (filter set Ex/Em 470 nm/527 nm) with readings taken every minute, for 1 hour. Proteolytic activity was evaluated as the rate of fluorescence enhancement in the parallel emission over the linear range of the reaction. % Inhibition values were calculated from assay controls and the resulting date is shown in Table 7.

T1 sequence (P10144 21-247): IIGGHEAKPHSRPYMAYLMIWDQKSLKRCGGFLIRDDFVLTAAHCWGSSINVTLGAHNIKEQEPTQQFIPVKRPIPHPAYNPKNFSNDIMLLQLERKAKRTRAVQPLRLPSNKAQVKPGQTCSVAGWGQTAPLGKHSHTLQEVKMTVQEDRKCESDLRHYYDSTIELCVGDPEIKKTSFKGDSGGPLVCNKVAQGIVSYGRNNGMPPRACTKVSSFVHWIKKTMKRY

Turning to `CC[C@H](C)[C@H](NC(=O)CCC(=O)O)C(=O)N[C@@H](CCC(=O)O)C(=O)N1c2ncccc2C[C@H]1C(=O)NCc1nn[nH]n1` [Example C4, (S)-5-((S)-2(((2H-tetrazol-5-yl)methyl)carbamoyl)-2,3-dihydro-1H-pyrrolo[2,3-B]pyridin-1-yl)-4-((2S,3S)-2-(3-carboxypropanamido)-3-methylpentanamido)-5-oxopentanoic acid], in assay [1], the inhibition at 50 µM was found to be 100%. Further, in assay [2], the inhibition at 0.62 µM stood at 45%, the inhibition at 5.56 µM is 79% and the inhibition at 50 µM amounted to 98%.
Consider `CC[C@H](C)[C@H](NC(=O)Cc1ccccc1)C(=O)N[C@@H](CCC(=O)O)C(=O)N1c2ncccc2C[C@H]1C(=O)NCc1nn[nH]n1` [Example C9, (S)-5-((S)-2-(((2H-tetrazol-5-yl)methyl)carbamoyl)-2,3-dihydro-1H-pyrrolo[2,3-B]pyridin-1-yl)-4-((2S,3S)-3-methyl-2-(2-phenylacetamido)pentanamido)-5-oxopentanoic acid], for which, in assay [2], the inhibition at 0.62 µM came out at 58%, the inhibition at 5.56 µM stood at 81% and the inhibition at 50 µM worked out at 91%.
For `CC[C@H](C)[C@H](NC(=O)Cc1nn[nH]n1)C(=O)NCC(=O)N1c2ncccc2C[C@H]1C(=O)NCc1nn[nH]n1` [Example A1, (S)-1-(2-((2S,3S)-2-(2-(2H-tetrazol-5-yl)acetamido)-3-methylpentanamido)acetyl)-N-((2H-tetrazol-5-yl)methyl)-2,3-dihydro-1H-pyrrolo[2,3-B]pyridine-2-carboxamide], in that order: 66%, 82% and 88%.
Turning to `CC(C)[C@H](NC(=O)CCC(=O)O)C(=O)N[C@@H](CCC(=O)O)C(=O)N1c2ncccc2C[C@H]1C(=O)NCc1nn[nH]n1` [Example C17, (S)-5-((S)-2-(((2H-tetrazol-5-yl)methyl)carbamoyl)-2,3-dihydro-1H-pyrrolo[2,3-B]pyridin-1-yl)-4-((S)-2-(3-carboxypropanamido)-3-methylbutanamido)-5-oxopentanoic acid], in assay [2], the inhibition at 0.62 µM stood at 56%, the inhibition at 5.56 µM worked out at 77% and the inhibition at 50 µM was found to be 94%.
